Measured values as given in US20210154190A1, “SHP2 INHIBITOR COMPOSITIONS AND METHODS FOR TREATING CANCER” (Revolution Medicines, Inc., priority 2018, published 2021).
Positions count from the first letter of the chain named. pIC50: −log10 of the molar value. “And” between values parts separate entries of the source, which are not always exact repeats. Identical values can stand only once. Like-named read-outs stand apart in the source and are kept apart here.

What was measured:
human SHP2-FL wild type = target: T1, human SHP2-FL wild type (Homo sapiens, UniProt Q06124); test: SHP2 allosteric inhibition assay (DiFMUP), wild type; format: biochemical; settings: for pIC50: read-out: IC50; for IC50: read-out: pIC50 (converted)
T1 sequence (Q06124 1-593): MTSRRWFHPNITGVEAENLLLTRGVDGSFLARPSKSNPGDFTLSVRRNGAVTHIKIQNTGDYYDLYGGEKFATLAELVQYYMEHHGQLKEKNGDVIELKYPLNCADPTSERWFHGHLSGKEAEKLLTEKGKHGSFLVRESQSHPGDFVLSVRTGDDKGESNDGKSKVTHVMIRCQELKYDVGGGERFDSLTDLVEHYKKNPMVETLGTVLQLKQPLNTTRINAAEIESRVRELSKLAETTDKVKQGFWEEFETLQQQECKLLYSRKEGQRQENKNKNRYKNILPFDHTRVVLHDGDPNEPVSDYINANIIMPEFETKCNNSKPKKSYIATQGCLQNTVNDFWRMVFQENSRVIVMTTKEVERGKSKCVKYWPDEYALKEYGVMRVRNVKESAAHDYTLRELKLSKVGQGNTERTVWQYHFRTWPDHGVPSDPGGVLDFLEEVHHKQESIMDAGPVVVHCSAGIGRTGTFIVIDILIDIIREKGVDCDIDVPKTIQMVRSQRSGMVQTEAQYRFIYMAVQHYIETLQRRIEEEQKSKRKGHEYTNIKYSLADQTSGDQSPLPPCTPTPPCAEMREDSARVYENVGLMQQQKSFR
Method: (§1) Full-length SHP2 is allosterically activated through binding of bis-tyrosyl-phorphorylated peptides to its Src Homology 2 (SH2) domains. The latter activation step leads to the release of the auto-inhibitory interface of SHP2, which in turn renders the SHP2 protein tyrosine phosphatase (PTP) active and available for substrate recognition and reaction catalysis. The catalytic activity of SHP2 was monitored using the surrogate substrate DiFMUP in a prompt fluorescence assay format.
(§2) […] […] 50 μl stop solution (0.1 mM sodium pervanadate) was added to each well, the plate was shaken briefly to mix, and read in endpoint mode on a SpectraMax M5 plate reader (Molecular Devices) using excitation and emission wavelengths of 340 nm and 450 nm. Data was imported into GraphPad Prism. Plots of fluorescence intensity vs. log Molar [compound] were created and modeled with a 3-parameter sigmoidal concentration response equation in order to estimate IC50.
(§3) Reactions were then allowed to proceed for 30 minutes and stopped by the addition of a phosphatase inhibitor, sodium pervanadate. De-phosphorylation of DiFMUP results in production of a fluorescent product. Product fluorescence was determined and plotted as a function of compound concentration in order to determine the IC50 for each compound on each mutant using a four parameter sigmoidal dose response function in Prism (GraphPad).
(§4) NsCs mimics the role of the cytosolic domain of a protein tyrosine kinase in this model system.

human SHP2-FL P491S = target: T2, human SHP2-FL P491S (Homo sapiens, UniProt Q06124, P491S); test: SHP2 allosteric inhibition assay (DiFMUP), P491S; format: biochemical
T2 sequence (Q06124 1-593 P491S): T1 sequence (Q06124 1-593) with P491S
Method: as §1, §2, §3, §4

SHP2 G60V = target: T3, SHP2 G60V (Homo sapiens, UniProt Q06124, G60V); test: EGF-induced pERK AlphaLISA in T-REx-293-SHP2 cells, G60V; format: cell-based; settings: Variant G60V
T3 construct: expressed in transfected cells; host or cells: Flp-In T-REx-293 (T-REx-293-SHP2)
Method: An experimental system was creating to test the activity of SHP2 mutants on an isogenic background (FIG. 6). The Flp-In T-REx-293 cell line was obtained from Gibco® and cultivated in high glucose DMEM™ containing 2 mM L-glutamine (Hyclone®), supplemented with 10% FBS (Hyclone®), 1% penicillin/streptomycin (Gibco®), 100 μg/mL Zeocin™ (Gibco®), and 15 μg/mL blasticidin (Gibco®) in a humidified cell culture incubator at 37° C., 5% CO2.
Wild type or mutant SHP2 variants were synthesized and subcloned into the pcDNA5/FRT/TO vector (ThermoFisher). Plasmids were co-transfected with the pOG44 Flp recombinase expression plasmid (ThermoFisher®) into Flp-In T-REx-293 cells using X-tremegene 9 DNA transfection reagent (Sigma®), according to the manufacturer's instructions. […]
For the final 5 minutes of drug treatment, cells were stimulated with 50 ng/mL Epidermal Growth Factor (Sigma®). […] Samples were read using an EnVision Multilabel Plate Reader (Perkin Elmer®) using standard AlphaLISA settings. Assay data was plotted and EC50 values were determined using four-parameter concentration-response model in GraphPad Prism 7. […]

[1] = Wild-type SHP2, 0.5 μM NsCs peptide (Activated)
[2] = Wild-type SHP2, No Peptide Control (Non-Activated)

SMILES	pIC50 (human SHP2-FL wild type; [1])	IC50 (human SHP2-FL wild type; [1])	pIC50 (human SHP2-FL wild type; [2])	IC50 (human SHP2-FL wild type; [2])	IC50 (human SHP2-FL P491S; IC50 (nM), SHP2 P491S 0.5 μM NsCs peptide (Activated), human SHP2-FL P491S, 0.5 μM NsCs peptide (activated))	IC50 (human SHP2-FL P491S; human SHP2-FL P491S alone, no peptide (non-activated), read-out: IC50 (nM), SHP2 P491S No Peptide Control (Non-Activated))	IC50 (human SHP2-FL P491S; human SHP2-FL P491S alone, no peptide (non-activated), read-out: pIC50, SHP2 P491S No Peptide Control (Non-Activated) (converted))	pIC50 (human SHP2-FL P491S; pIC50, SHP2 P491S 0.5 μM NsCs peptide (Activated), human SHP2-FL P491S, 0.5 μM NsCs peptide (activated))	Biochemical sensitivity (human SHP2-FL wild type; Variant WT)	Biochemical sensitivity (human SHP2-FL P491S; Variant P491S)	Cellular sensitivity (SHP2 G60V)
Nc1nc(N2CCC3(CCC[C@H]3N)CC2)cnc1Sc1ccnc(Cl)c1Cl [Compound 1]	8.58 and 8.57 and 8.67 and 8.63	2.63 nM and 2.69 nM and 2.14 nM and 2.34 nM	8.70 and 8.61 and 8.87 and 8.65	2 nM and 2.45 nM and 1.35 nM and 2.24 nM	> 10000 nM and 10600 nM and 7670 nM	258 nM and 274 nM and 253 nM and 282 nM	257 nM and 275 nM and 251 nM and 282 nM	< 5.00 and 4.97 and 5.12	–	–	–
Cc1nc(N2CCC3(CC2)CO[C@@H](C)[C@H]3N)c(CO)nc1-c1cccc(Cl)c1Cl [Compound B]	–	–	–	–	–	–	–	–	yes (Sensitive if IC50 < 2000 nM)	no (Sensitive if IC50 < 2000 nM)	no (Sensitive if IC50 < 2000 nM)
